Assay results published in article PMC8968665, “Verteporfin is a substrate-selective γ-secretase inhibitor that binds the amyloid precursor protein transmembrane domain” (The Journal of Biological Chemistry, 2022).

Tests used:
[1] = target: T1, γ-secretase cleavage of C100-Flag (C99) (Homo sapiens, UniProt P05067); assay: γ-Secretase assay, C100-FLAG cleavage, AICD by anti-Flag Western blot; type: biochemical; conditions: 30 nM LY411,575, 2 µM C100-Flag, 1 nM γ-secretase, Fig. S6A lane 7
T1 construct: C100 is C99 with an added N-terminal Met residue; made in house
Procedure: The γ-secretase-dependent proteolysis assays with both substrates (C100-FLAG and HexaHis Notch 1 JM/TM) were performed in a weak zwitterionic detergent (CHAPSO, 3-[(3- cholamidopropyl)dimethylammonio]-2-hydroxy-1-propanesulfonate) solubilized conditions ([79], [80]). C100 is C99 with an added N-terminal Met residue. […] Proteolytic reactions were initiated by adding purified substrates (either C100-FLAG(79) or HexaHis-Notch 1 JM/TM(77)) and incubating at 37 °C (16 h for C100Flag and 4 h for HexaHis-Notch 1 JM/TM). Reactions were quenched with SDS, and the cleaved intracellular domain products (AICD-FLAG released from C100-FLAG or truncated intracellular domain (NICD) released from the proteolysis of Hexa-His Notch 1 JM/TM) were visualized by Western blot using specific primary antibodies, anti-FLAG antibody for FLAG-tagged AICD, and neoepitope-specific anti-V1744 antibody for NICD ([80], [83], [84]).

[2] = target: C99 (C-terminal 99 amino acid fragment of the human amyloid precursor protein), as used for IM-MS (human) (UniProt P05067); assay: native MS; native ion mobility-mass spectrometry (IM-MS); 20 uM C99 in 100X CMC LMPG or DDMB micelles, 200 mM ammonium acetate pH 4.5; DMSO or 0-50 uM verteporfin, incubated in the dark overnight; micelles dissociated in the instrument

C99 (C-terminal 99 amino acid fragment of the human amyloid precursor protein), as used for IM-MS, sequence (P05067 672-770): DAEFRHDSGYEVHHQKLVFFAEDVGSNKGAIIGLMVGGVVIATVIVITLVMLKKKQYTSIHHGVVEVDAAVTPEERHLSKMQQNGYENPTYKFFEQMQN
T1 sequence (P05067 672-770 limits assumed): as the sequence (P05067 672-770) above

Row | Compound | C100-Flag cleavage efficiency (Western blot) [1] | stoichiometry N [2]
1 | C[C@H](NC(=O)[C@@H](O)c1cc(F)cc(F)c1)C(=O)N[C@@H]1C(=O)N(C)c2ccccc2-c2ccccc21 [LY411,575] | fully | –
2 | C99 (C-terminal 99 amino acid fragment of the human amyloid precursor protein), as used for IM-MS (from UniProt P05067 672-770) (domain or fragment) | – | 2
